Data from US20250145585A1, “HETEROCYCLIC INHIBITORS OF IGF-1R FOR TREATMENT OF DISEASE” (HORIZON THERAPEUTICS IRELAND DAC, priority 2023, published 2025).

Biological target: T1, IGF-1R (Homo sapiens, UniProt P08069)
T1 construct: expressed in transfected cells
Assay: Example B-2: IGF-1R Assay (PathHunter cell lines, EC80 agonist challenge, chemiluminescent detection)
Type: cell-based
Conditions: PathHunter cells, compound 60 minutes at 37° C., EC80 agonist 3 hours; read-out: IC50, Biological Activity against IGF-1R (Table B2)
Method: PathHunter cell lines were expanded from freezer stocks according to standard procedures. Cells were seeded in a total volume of 20 μL into white walled, 384-well microplates and incubated for the appropriate time prior to testing.
Cells are pre-incubated with compound followed by EC80 agonist challenge as follows: • R. 1. Intermediate dilution of sample stocks was performed to generate 5× sample in assay buffer. • 2. 5 μL of 5× sample was added to cells and incubated at 37° C. for 60 minutes. Vehicle concentration was 1%. • 3. 5 IL of 6× EC80 agonist in assay buffer was added to the cells and incubated at room temperature for 3 hours.
Assay signal was generated through a single addition of 12.5 or 15 μL (50% v/v) of PathHunter Detection reagent cocktail for agonist and antagonist assays respectively, followed by a one hour incubation at room temperature. Microplates were read following signal generation with a PerkinElmer Envision™ instrument for chemilumine-scent signal detection.
Compound activity was analyzed using CBIS data analysis suite (ChemInnovation, CA). Percentage inhibition was calculated using the following formula: % Inhibition=100%×(1−(mean RLU of test sample−mean RLU of vehicle control)/(mean RLU of EC80 control−mean RLU of vehicle control)). The activity for representative examples of the invention is shown in the following table, wherein A: IC50≤500 nM; B: 500 nM<IC50≤2 μM; C: 2 μM<IC50≤10 μM; D: IC50>10 μM.

T1 sequence (P08069 31-1367): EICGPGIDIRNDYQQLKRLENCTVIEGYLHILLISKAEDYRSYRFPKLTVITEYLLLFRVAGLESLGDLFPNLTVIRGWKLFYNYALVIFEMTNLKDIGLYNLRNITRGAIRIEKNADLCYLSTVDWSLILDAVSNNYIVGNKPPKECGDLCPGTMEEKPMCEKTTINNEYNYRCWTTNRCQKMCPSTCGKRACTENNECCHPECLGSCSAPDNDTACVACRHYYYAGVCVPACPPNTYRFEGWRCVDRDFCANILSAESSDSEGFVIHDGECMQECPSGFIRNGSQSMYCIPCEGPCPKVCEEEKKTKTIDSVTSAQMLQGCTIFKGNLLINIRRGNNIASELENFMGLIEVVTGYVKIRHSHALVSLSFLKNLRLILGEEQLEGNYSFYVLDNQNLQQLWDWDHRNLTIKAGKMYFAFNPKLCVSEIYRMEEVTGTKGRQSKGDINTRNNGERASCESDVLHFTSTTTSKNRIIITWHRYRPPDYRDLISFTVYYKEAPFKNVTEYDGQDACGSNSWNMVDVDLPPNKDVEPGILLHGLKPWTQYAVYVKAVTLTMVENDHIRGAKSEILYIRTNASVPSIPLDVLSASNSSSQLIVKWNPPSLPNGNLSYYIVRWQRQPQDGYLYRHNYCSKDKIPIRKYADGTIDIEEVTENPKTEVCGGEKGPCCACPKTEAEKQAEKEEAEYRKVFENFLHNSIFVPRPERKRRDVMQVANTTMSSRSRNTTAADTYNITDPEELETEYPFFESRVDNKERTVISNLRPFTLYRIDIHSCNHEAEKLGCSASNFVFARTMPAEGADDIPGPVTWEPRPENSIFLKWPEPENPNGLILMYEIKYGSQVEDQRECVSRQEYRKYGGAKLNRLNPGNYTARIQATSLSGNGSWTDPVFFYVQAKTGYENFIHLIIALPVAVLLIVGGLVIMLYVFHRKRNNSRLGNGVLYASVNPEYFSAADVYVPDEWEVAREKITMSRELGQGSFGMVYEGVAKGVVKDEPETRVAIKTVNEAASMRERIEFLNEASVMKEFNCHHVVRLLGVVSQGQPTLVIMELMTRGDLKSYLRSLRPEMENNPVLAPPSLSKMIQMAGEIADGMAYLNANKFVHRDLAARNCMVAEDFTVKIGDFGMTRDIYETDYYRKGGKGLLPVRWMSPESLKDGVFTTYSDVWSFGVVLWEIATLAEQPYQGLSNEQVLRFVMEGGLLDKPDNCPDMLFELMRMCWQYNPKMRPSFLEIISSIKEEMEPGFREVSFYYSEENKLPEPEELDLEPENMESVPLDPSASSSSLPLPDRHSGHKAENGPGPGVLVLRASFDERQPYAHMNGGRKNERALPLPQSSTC

SMILES	IC50 [nM]
CC1(C)C(=O)N(c2ccc(C3(C#N)CC3(C)C)cc2)C(=O)N1Cc1ccnc2c1CC(=O)N2 (centres unmarked) [Compound 61, 1-(4-(4,4-dimethyl-2,5-dioxo-3-((2-oxo-2,3-dihydro-1H-pyrrolo[2,3-b]pyridin-4-yl)methyl)imidazolidin-1-yl)phenyl)-2,2-dimethylcyclopropane-1-carbonitrile]	≤ 500
CC1(C)C(=O)N(c2ccc(S(C)(=O)=O)cc2)C(=O)N1Cc1ccnc2c1CC(=O)N2 [Compound 62, 5,5-dimethyl-3-(4-(methylsulfonyl)phenyl)-1-((2-oxo-2,3-dihydro-1H-pyrrolo[2,3-b]pyridin-4-yl)methyl)imidazolidine-2,4-dione]	> 10000
CC1(C)C(=O)N(c2ccc(S(=O)(=O)C(F)F)cc2)C(=O)N1Cc1ccnc2c1CC(=O)N2 [Compound 63, 3-(4-((difluoromethyl)sulfonyl)phenyl)-5,5-dimethyl-1-((2-oxo-2,3-dihydro-1H-pyrrolo[2,3-b]pyridin-4-yl)methyl)imidazolidine-2,4-dione]	500 to 2000
CC1(C)C(=O)N(c2ccc(C3(C#N)CC3)cc2)C(=O)N1Cc1ccnc2c1CC(=O)N2 [Compound 64, 1-(4-(4,4-dimethyl-2,5-dioxo-3-((2-oxo-2,3-dihydro-1H-pyrrolo[2,3-b]pyridin-4-yl)methyl)imidazolidin-1-yl)phenyl)cyclopropane-1-carbonitrile]	500 to 2000
CN1C(=O)Cc2c(CN3C(=O)N(c4ccc(C5(C#N)CCC5)cc4)C(=O)C3(C)C)ccnc21 [Compound 65, 1-(4-(4,4-dimethyl-3-((1-methyl-2-oxo-2,3-dihydro-1H-pyrrolo[2,3-b]pyridin-4-yl)methyl)-2,5-dioxoimidazolidin-1-yl)phenyl)cyclobutane-1-carbonitrile]	> 10000
CC1(C)C(=O)N(c2ccc(C(F)(F)F)c(C#N)c2)C(=O)N1Cc1ccnc2c1CC(=O)N2 [Compound 66, 5-(4,4-dimethyl-2,5-dioxo-3-((2-oxo-2,3-dihydro-1H-pyrrolo[2,3-b]pyridin-4-yl)methyl)imidazolidin-1-yl)-2-(trifluoromethyl)benzonitrile]	> 10000
CC1(C)C(=O)N(c2ccc3c(c2)N(S(C)(=O)=O)CC3)C(=O)N1Cc1ccnc2c1CC(=O)N2 [Compound 67, 5,5-dimethyl-3-(1-(methylsulfonyl)indolin-6-yl)-1-((2-oxo-2,3-dihydro-1H-pyrrolo [2,3-b]pyridin-4-yl)methyl)imidazolidine-2,4-dione]	> 10000
CC(C)c1ccc(N2C(=O)N(Cc3ccnc4c3CC(=O)N4)C(C)(C)C2=O)cc1C#N [Compound 68, 5-(4,4-dimethyl-2,5-dioxo-3-((2-oxo-2,3-dihydro-1H-pyrrolo[2,3-b]pyridin-4-yl)methyl)imidazolidin-1-yl)-2-isopropylbenzonitrile]	500 to 2000
CC1(C)C(=O)N(c2ccc(C3(C#N)CC34CC4)cc2)C(=O)N1Cc1ccnc2c1CC(=O)N2 (centres unmarked) [Compound 69, 1-(4-(4,4-dimethyl-2,5-dioxo-3-((2-oxo-2,3-dihydro-1H-pyrrolo[2,3-b]pyridin-4-yl)methyl)imidazolidin-1-yl)phenyl)spiro[2.2]pentane-1-carbonitrile]	≤ 500
CC1(C)C(=O)N(c2ccc3c(c2)OC(F)(F)C32CC2)C(=O)N1Cc1ccnc2c1CC(=O)N2 [Compound 70, 3-(2,2-difluoro-2H-spiro[benzofuran-3,1′-cyclopropan]-6-yl)-5,5-dimethyl-1-((2-oxo-2,3-dihydro-1H-pyrrolo[2,3-b]pyridin-4-yl)methyl)imidazolidine-2,4-dione]	2000 to 10000
CC1(C)C(=O)N(c2ccc(C3(C#N)CC3)c(F)c2)C(=O)N1Cc1ccnc2c1CC(=O)N2 [Compound 71, 1-(4-(4,4-dimethyl-2,5-dioxo-3-((2-oxo-2,3-dihydro-1H-pyrrolo[2,3-b]pyridin-4-yl)methyl)imidazolidin-1-yl)-2-fluorophenyl)cyclopropane-1-carbonitrile]	500 to 2000
